Measured values taken from ChEMBL document CHEMBL5143742, “Discovery and Characterization of a Novel Series of Chloropyrimidines as Covalent Inhibitors of the Kinase MSK1” (ACS Med Chem Lett, 2022).

Tests used:
[1] = Intrinsic clearance in human liver microsomes assessed per mg protein; format: ADME, Microsome
[2] = Lipophilicity, log D of the compound; format: physicochemical; settings: octanol/water
[3] = Intrinsic clearance in mouse liver microsomes assessed per mg protein; format: ADME, Microsome

CLH [1]: 11.7 µL/min
logD [2]: 2.3
CLH [3]: 131 µL/min
SMILES: Clc1ncc(Cl)c(-n2ccc3ncccc32)n1
